Results published in patent US20070049593A1 (priority 2004, published 2007).
Structures can show the parent of a compound that is named as a salt.

biological target: T1, HCV polymerase (Hepatitis C virus genotype 1b, UniProt P26663); test: biochemical; set-up: species or system HCV BK strain
T1 construct: a region encoding NS5B (J Virol 1991 March, 65(3), 1105-13, 544 amino acids after deletion of 47 amino acids on the C-terminal); 6xHis (C); made in house; host or cells: Escherichia coli
In short: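 Recombinant HCV BK-strain NS5B (C-terminal 47 aa deleted, His6-tagged, E. coli), 0.5 μg/ml, run with 5 μg/ml in vitro-transcribed RNA template (polyU/3′X), ATP/GTP/CTP 50 μM, UTP 2 μM plus [3H]UTP, pH 7.5, 25° C, 90 min. TCA-precipitated RNA counted by scintillation; IC50 from activity with vs without compound.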

T1 sequence (P26663 2420-2963): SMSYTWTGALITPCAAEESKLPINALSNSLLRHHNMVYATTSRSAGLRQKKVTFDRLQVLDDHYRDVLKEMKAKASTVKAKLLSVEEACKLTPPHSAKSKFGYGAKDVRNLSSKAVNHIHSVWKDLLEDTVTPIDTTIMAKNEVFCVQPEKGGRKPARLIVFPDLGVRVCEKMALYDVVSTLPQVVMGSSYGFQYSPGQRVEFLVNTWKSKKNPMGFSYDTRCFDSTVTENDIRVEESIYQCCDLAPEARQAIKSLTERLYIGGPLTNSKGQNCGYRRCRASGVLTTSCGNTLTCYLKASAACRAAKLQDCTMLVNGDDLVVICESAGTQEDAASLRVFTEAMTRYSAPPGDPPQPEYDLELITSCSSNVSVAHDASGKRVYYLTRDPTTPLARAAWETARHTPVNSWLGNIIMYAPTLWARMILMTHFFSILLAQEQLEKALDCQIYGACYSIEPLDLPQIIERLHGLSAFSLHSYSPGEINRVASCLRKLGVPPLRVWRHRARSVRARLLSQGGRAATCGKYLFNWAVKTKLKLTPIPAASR

Structure (SMILES) | IC50 [nM]
COCCCC1CCCN(CCN2CCn3c(c(C4CCCCC4)c4ccc(C(=O)O)cc43)-c3ccc(C)cc32)C1 [Example 1-540, 13-cyclohexyl-5-{2-[(S)-3-(3-methoxypropyl)piperidin-1-yl]ethyl}-3-methyl-6,7-dihydro-5H-benzo[5,6][1,4]diazepino[7,1-a]indole-10-carboxylic acid dihydrochloride] | < 100
COC(C)(C)[C@@H]1CCCN(CCN2CCn3c(c(C4CCCCC4)c4ccc(C(=O)O)cc43)-c3ccc(C)cc32)C1 [Example 1-541, 13-cyclohexyl-5-{2-[(R)-3-(1-methoxy-1-methylethyl)piperidin-1-yl]ethyl}-3-methyl-6,7-dihydro-5H-benzo[5,6][1,4]diazepino[7,1-a]indole-10-carboxylic acid dihydrochloride] | < 100
COCCC1CCCCN1CCN1CCn2c(c(C3CCCCC3)c3ccc(C(=O)O)cc32)-c2ccc(C)cc21 (stereo not shown) [Example 1-542, 13-cyclohexyl-5-{2-[2-(2-methoxyethyl)piperidin-1-yl]ethyl}-3-methyl-6,7-dihydro-5H-benzo[5,6][1,4]diazepino[7,1-a]indole-10-carboxylic acid dihydrochloride] | < 100
CN(C)CCN1CCn2c(c(C3CCCCC3)c3ccc(C(=O)O)cc32)-c2ccc(OCc3ccccn3)cc21 [Example 1-543, 13-cyclohexyl-5-(2-dimethylaminoethyl)-3-(pyridin-2-ylmethoxy)-6,7-dihydro-5H-benzo[5,6][1,4]diazepino[7,1-a]indole-10-carboxylic acid trihydrochloride] | < 100
COCC[C@@H]1CCCN(CCN2CCn3c(c(C4CCCCC4)c4ccc(C(=O)O)cc43)-c3cc(F)c(F)cc32)C1 [Example 1-544, 13-cyclohexyl-2,3-difluoro-5-{2-[(S)-3-(2-methoxyethyl)piperidin-1-yl]ethyl}-6,7-dihydro-5H-benzo[5,6][1,4]diazepino[7,1-a]indole-10-carboxylic acid dihydrochloride] | < 100
Cc1ccc2c(c1)N(CCN1CCCC(C(=O)N(C)C)C1)CCn1c-2c(C2CCCCC2)c2ccc(C(=O)O)cc21 (stereo not shown) [Example 1-545, 13-cyclohexyl-5-[2-(3-dimethylcarbamoylpiperidin-1-yl)ethyl]-3-methyl-6,7-dihydro-5H-benzo[5,6][1,4]diazepino[7,1-a]indole-10-carboxylic acid dihydrochloride] | < 100
COCCOc1ccc2c(c1)N(CCN1CCCCC1)CCn1c-2c(C2CCCCC2)c2ccc(C(=O)O)cc21 [Example 1-546, 13-cyclohexyl-3-(2-methoxyethoxy)-5-[2-(piperidin-1-yl)ethyl]-6,7-dihydro-5H-benzo[5,6][1,4]diazepino[7,1-a]indole-10-carboxylic acid dihydrochloride] | < 100
COCCO[C@@H]1CCCN(CCN2CCn3c(c(C4CCCCC4)c4ccc(C(=O)O)cc43)-c3ccc(C)cc32)C1 [Example 1-547, 13-cyclohexyl-5-{2-[(R)-3-(2-methoxyethoxy)piperidin-1-yl]ethyl}-3-methyl-6,7-dihydro-5H-benzo[5,6][1,4]diazepino[7,1-a]indole-10-carboxylic acid dihydrochloride] | < 100
CN(C)CCN1CCn2c(c(C3CCCCC3)c3ccc(C(=O)O)cc32)-c2ccc(OCCOc3ccccc3)cc21 [Example 1-548, 13-cyclohexyl-5-(2-dimethylaminoethyl)-3-(2-phenoxyethoxy)-6,7-dihydro-5H-benzo[5,6][1,4]diazepino[7,1-a]indole-10-carboxylic acid dihydrochloride] | < 100
O=C(O)c1ccc2c(C3CCCCC3)c3n(c2c1)CCN(CCN1CCCCC1)c1ncccc1-3 [Example 1-549, 12-cyclohexyl-5-[2-(piperidin-1-yl)ethyl]-6,7-dihydro-5H-4,5,7a-triazadibenzo[a,e]azulene-9-carboxylic acid dihydrochloride] | < 100
O=C(O)c1ccc2c(C3CCCCC3)c3n(c2c1)CCN(CCN1CCCOCC1)c1cc(F)c(F)cc1-3 [Example 1-550, 13-cyclohexyl-2,3-difluoro-5-[2-(1,4-oxazepan-4-yl)ethyl]-6,7-dihydro-5H-benzo[5,6][1,4]diazepino[7,1-a]indole-10-carboxylic acid dihydrochloride] | < 100
COCC1CCCCN(CCN2CCn3c(c(C4CCCCC4)c4ccc(C(=O)O)cc43)-c3ccc(C)cc32)C1 (stereo not shown) [Example 1-551, 13-cyclohexyl-5-[2-(3-methoxymethylazepan-1-yl)ethyl]-3-methyl-6,7-dihydro-5H-benzo[5,6][1,4]diazepino[7,1-a]indole-10-carboxylic acid dihydrochloride] | < 100
CN1CCn2c(c(C3CCCCC3)c3ccc(C(=O)O)cc32)-c2cccc(OCCN3CCCCC3)c21 [Example 1-552, 13-cyclohexyl-5-methyl-4-[2-(piperidin-1-yl)ethoxy]-6,7-dihydro-5H-benzo[5,6][1,4]diazepino[7,1-a]indole-10-carboxylic acid dihydrochloride] | < 100
CC(=O)N(C)CC[C@@H]1CCCN(CCN2CCn3c(c(C4CCCCC4)c4ccc(C(=O)O)cc43)-c3ccc(C)cc32)C1 [Example 1-553, 5-(2-{(S)-3-[2-(N-acetyl-N-methylamino)ethyl]piperidin-1-yl}ethyl)-13-cyclohexyl-3-methyl-6,7-dihydro-5H-benzo[5,6][1,4]diazepino[7,1-a]indole-10-carboxylic acid dihydrochloride] | < 100
Cc1ccc2c(c1)N(CCN1CCCCC1)CCn1c-2c(C2CCCCC2)c2ccc(C(=O)O)c(C)c21 [Example 1-554, 13-cyclohexyl-3,9-dimethyl-5-[2-(piperidin-1-yl)ethyl]-6,7-dihydro-5H-benzo[5,6][1,4]diazepino[7,1-a]indole-10-carboxylic acid dihydrochloride] | < 100
Cc1ccc2c(c1)N(CCN1CCC[C@@H](CCN(C)C)C1)CCn1c-2c(C2CCCCC2)c2ccc(C(=O)O)cc21 [Example 1-555, 13-cyclohexyl-5-{2-[(S)-3-(2-dimethylaminoethyl)piperidin-1-yl]ethyl}-3-methyl-6,7-dihydro-5H-benzo[5,6][1,4]diazepino[7,1-a]indole-10-carboxylic acid dihydrochloride] | < 100
Cc1ccc2c(c1)N(CCN1CCC[C@@H](CC(=O)O)C1)CCn1c-2c(C2CCCCC2)c2ccc(C(=O)O)cc21 [Example 1-556, 5-[2-((S)-3-carboxymethylpiperidin-1-yl)ethyl]-13-cyclohexyl-3-methyl-6,7-dihydro-5H-benzo[5,6][1,4]diazepino[7,1-a]indole-10-carboxylic acid dihydrochloride] | < 100
Cc1ccc2c(c1)N(CCN1CCC[C@@H](CCN(C)C(=O)OC(C)(C)C)C1)CCn1c-2c(C2CCCCC2)c2ccc(C(=O)O)cc21 [Example 1-557, 5-(2-{(S)-3-[2-(N-tert-butoxycarbonyl-N-methylamino)ethyl]piperidin-1-yl)ethyl)-13-cyclohexyl-3-methyl-6,7-dihydro-5H-benzo[5,6][1,4]diazepino[7,1-a]indole-10-carboxylic acid monohydrochloride] | < 100
Cc1ccc2c(c1)N(C1CCN(C(=O)OCc3ccccc3)CC1)CCn1c-2c(C2CCCCC2)c2ccc(C(=O)O)cc21 [Example 1-558, 5-(1-benzyloxycarbonylpiperidin-4-yl)-13-cyclohexyl-3-methyl-6,7-dihydro-5H-benzo[5,6][1,4]diazepino[7,1-a]indole-10-carboxylic acid] | 100 to 1000
